From US20020146823A1, “Method for promoting hematopoietic and mesenchymal cell proliferation and differentiation” (The University of Southern California, priority 1997, published 2002)
“Also recorded” adds a separate entry of the source. No end group written: not given here.

How the values were obtained:
[1] = tested on: Rat Peritoneal Macrophages; test: Phagocytic capability of rat peritoneal macrophages (opsonized yeast ingestion); assay type: cell-based, Sprague Dawley rats
Experimental: Resident peritoneal macrophages have very little phagocytic activity. Exposure of macrophages to inflammatory or activating agents will increase this macrophage function. Resident peritoneal macrophages were harvested from C57B1/6 mice or Sprague Dawley rats and resuspended at a concentration of 1×10^6 cells/ml in phosphate buffered saline (PBS). Five separate 0.5 ml cell aliquots were placed on a glass coverslip in a 35 mm petri dish. Prior to incubation, either 0.5 ml of PBS, AII, or AII analogues or fragments at between 1-1000 ug/ml final concentration was added to the individual cover slips. The dishes containing the cover slips were then incubated at 37° C. for 4 hours, after which the cover slips were washed 3 to 6 times with PBS. Opsonized yeast particles (Sigma Chemical Co.) (yeast opsonized with adult serum from the same species as that under study) were added to the cover slips and incubated for 2 hours, after which the cover slips were again washed with PBS and inverted onto a glass slide. The number of macrophages that ingested yeast and the number of yeast per macrophage ingested was then determined microscopically. At least 100 macrophages per coverslip were counted. The data from this study are summarized in Tables 3 and 4 and FIGS. 1 and 2.

[2] = tested on: human peripheral blood mononuclear cells (PBMC); test: Respiratory burst (hydrogen peroxide generation) in human PBMC; assay type: cell-based; conditions: PBMC; presence and absence of PMA
Experimental: The respiratory burst of leukocytes (macrophages and polymorphonuclear neutrophils) is one component of the mediator system used to kill bacteria. As with phagocytosis, the level of this respiratory burst activity in resident macrophages is low. […] Studies were conducted to assess the effect of in vitro exposure of murine or rat peritoneal macrophages and human peripheral blood mononuclear cells (PBMC) to various concentrations of AII on the capacity to generate hydrogen peroxide via the respiratory burst system. For the human studies, five different donors were examined.
The murine or rat peritoneal cells were harvested by lavage with 5-15 ml of cold PBS with 0.5% bovine serum albumin. The human PBMC were harvested by venipuncture from normal human volunteers and isolated from peripheral blood by Ficoll Hypaque density centrifugation. After isolation, the cells were resuspended at 1×10^6 cells/ml and placed at 100 μl per well into 96 well plates. The cells were incubated with various concentrations of AII or AII analogues and fragments for 4 hours at 37° C. The cells were then preloaded with a fluorescent probe for hydrogen peroxide, 2,7 dichlorofluorescein acetate, which is nonfluorescent in the absence of hydrogen peroxide. Fifteen minutes later, 10 ng/ml of phorbol myristate acetate (+PMA) or PBS (−PMA) was added to stimulate the production of hydrogen peroxide. One hour after stimulation the level of fluorescence produced was measured on a Cytofluor 2350 multiwell fluorometer.

[3] = Tests of effectiveness of AII fragments (test not specified)
Text: Particularly preferred embodiments of this class include the following: AII, AIII or AII(2-8), […] [SEQ ID NO:2]; […] AII(1-7), […] {SEQ ID NO:4]; AII(2-7). […] [SEQ ID NO:5]; AII(3-7), […] [SEQ ID NO:6]; AII(5-8), […] [SEQ ID NO:7]; AII(1-6), […] [SEQ ID NO:8]; AII(1-5), […] [SEQ ID NO:9]; AII(1-4), […] [SEQ ID NO:10]; and AII(1-3), […] [SEQ ID NO:11]. Other preferred embodiments include: […] [SEQ ID NO:12] and […] [SEQ ID NO:13]. Still another preferred embodiment encompassed within the scope of the invention is a peptide having the sequence […] [SEQ ID NO:31]. AII(6-8), […] [SEQ ID NO:14] and AII(4-8), […] Particularly preferred is angiotensin III of the formula […] [SEQ ID NO:2]. Other preferred compounds include peptides having the structures […] [SEQ ID NO:17] and […] [SEQ ID NO:18].

Substance | #/Cell ([1]; peptide 100 μg/ml) | % w/Yeast ([1]; peptide 100 μg/ml) | Number of Macrophages with Yeast (Yeast Number) 0 ([1]; peptide 100 μg/ml) | Number of Macrophages with Yeast (Yeast Number) 1-3 ([1]; peptide 100 μg/ml) | Number of Macrophages with Yeast (Yeast Number) 4-6 ([1]; peptide 100 μg/ml) | Number of Macrophages with Yeast (Yeast Number) ≧7 ([1]; peptide 100 μg/ml) | #/Cell ([1]; peptide 1000 μg/ml) | % w/Yeast ([1]; peptide 1000 μg/ml) | Number of Macrophages with Yeast (Yeast Number) 0 ([1]; peptide 1000 μg/ml) | Number of Macrophages with Yeast (Yeast Number) 1-3 ([1]; peptide 1000 μg/ml) | Number of Macrophages with Yeast (Yeast Number) 4-6 ([1]; peptide 1000 μg/ml) | Number of Macrophages with Yeast (Yeast Number) ≧7 ([1]; peptide 1000 μg/ml) | respiratory burst capacity after pre-exposure to analogues and fragments of AII [2] | effectiveness [3]
Asp-Arg-Val-Tyr-Ile-His-Pro (DRVYIHP; printed: Asp-Arg-Val-Tyr-Ile-His-Pro) [AII(1-7)] | 0.53 | 20.6% | 100 | 21 | 5 | 0 | 0.85 | 30.8% | 90 | 30 | 10 | 0 | an increase in the respiratory burst capacity was observed | –
Asp-Arg-Val-Tyr-Ile-His-Pro-Ile [GSD 28] | – | – | – | – | – | 0 | 0.02 | 1.0% | 100 | 1 | 0 | 0 | an increase in the respiratory burst capacity was observed | –
DRPYIHPF [GSD 24B] | – | – | – | – | – | 0 | – | – | 100 | – | – | 0 | an increase in the respiratory burst capacity was observed | –
His-Pro-Phe [AII(6-8)] | – | – | – | – | – | – | – | – | – | – | – | – | – | not to be effective
RVYAHPF [GSD 22A] | – | – | – | – | – | 0 | – | – | 100 | – | – | 0 | an increase in the respiratory burst capacity was observed | –
Tyr-Ile-His-Pro-Phe (YIHPF; printed: Tyr-Ile-His-Pro-Phe) [AII(4-8)] | – | – | – | – | – | – | – | – | – | – | – | – | – | not to be effective; also recorded: ineffective in repeated tests
